Source: patent US12268660B2, “Oral pharmaceutical formulations of bitter compounds for pulmonary hypertension” (Aardvark Therapeutics Inc., priority 2018, dated 2025)
Counter-ions that a name gives are not always drawn. Like-named read-outs stand apart in the source and are kept apart here.

How the values were obtained:
[1] = Solubility of test compounds (choice of control media); conditions: water or DMSO
[2] = test system: human primary smooth muscle cells (PVSMC); conditions: endothelin-1 100 nM; for synergy in combination with SIN: bitter agent 1 mM with low SIN doses (10 μM)
Protocol: An in vitro model using human primary smooth muscle cells (PVSMC) were stimulated to contract with 100 nM endothelin-1, then treated with various test compounds alone and in combination with the PDE-5 inhibitor sildenafil, approved to treat PAH. The concentration used were 3-CQL at 1 mM, DB at 1 mM, DS at 1 mM and SIN (sildenafil) at 10 μM. The controls were 0.5% and 1% DMSO in media because DB is water-soluble but DS, 3-CQL and SIN are DMSO soluble.

primary pulmonary SMCs = assay: Second experiment: primary pulmonary SMCs induced to contract with 10 μM phenylephernine (PE); type: cell-based; conditions: PE 10 μM; for synergy in combination with SIN: bitter agent with low SIN doses
Protocol: In a second experiment, primary pulmonary SMCs were induced to contract using 10 μM phenylephernine (PE). PE was added after a baseline reading. The test compounds were added after a second timepoint and 800-1300 cells were assayed per trace, starting with FIG. 6.

TAS2R subtypes = conditions: cited from earlier work
[3] = cited from earlier work
[4] = SIN by itself at low doses (10 μM)

Molecule | solubility [1] | synergy in combination with SIN [2] | synergy in combination with SIN (primary pulmonary SMCs) | TAS2R subtypes activated (number) (TAS2R subtypes) | other results
O=C(/C=C/c1ccc(O)c(O)c1)O[C@@H]1C[C@]2(O)C[C@@H](OC2=O)[C@@H]1O [3-CQL, 3-caffeoylquinic-1,5-lactone] | DMSO soluble | synergy | possibly | – | –
CCCc1nn(C)c2c(=O)[nH]c(-c3cc(S(=O)(=O)N4CCN(C)CC4)ccc3OCC)nc12 [SIN, sildenafil, reference compound] | DMSO soluble | – | – | – | efficacy in reversal from peak contraction of the PVSMCs ([2]; SIN at 100 μM): extremely effective; efficacy in reversal from peak contraction of the PVSMCs [2, 4]: not effective; in vitro efficacy against PE-induced contraction (primary pulmonary SMCs; SIN at 100 μM): extremely effective; in vitro efficacy against PE-induced contraction (primary pulmonary SMCs; [4]): not effective
CC[N+](CC)(CC(=O)Nc1c(C)cccc1C)Cc1ccccc1 [DS, Denatonium Saccharide] | – | synergy | synergy | – | –
CC[N+](CC)(CC(=O)Nc1c(C)cccc1C)Cc1ccccc1.O=C([O-])c1ccccc1 [DB, Denatonium Benzoate] | – | synergy | synergy | 8 | potency in reversal from peak contraction of the PVSMCs ([2]; DB alone (1 mM)): not potent
CN1CCc2cccc3c2[C@H]1Cc1ccc(O)c(O)c1-3 [Apomorphine, 5,6,6a,7-Tetrahydro-6-methyl-4H-dibenzo[de,g]quinoline-10,11-diol hydrochloride] | – | – | – | – | oral availability [3]: ~4%
quinine [reference compound] | – | – | – | 9 | –
